Experimental data taken from publication PMC7148434, “ACE-domain selectivity extends beyond direct interacting residues at the active site” (Biochemical Journal, 2020).
Square brackets hold non-standard residues; d marks the D form. Ends that are not written are not given here. * marks the point of attachment. Dnp = O=[N+]([O-])c1ccc(*)c([N+](=O)[O-])c1; 2Abz = Nc1ccccc1C(=O)O

Assays:
[1] = biological target: S2_S′-nACE (S260T, E262S, D354E, S357V, T358V, Y369F, R381E and E431D) (Homo sapiens, UniProt P12821, D383E/E291S/E460D/R410E/S289T/S386V/T387V/Y398F); test: Inhibitor binding kinetics, modified Abz-FRK(Dnp)P-OH assay, combined S2_S′ mutant; type: biochemical; set-up: The truncated (single domain) wild-type N-domain (nACE), N-domain mutant constructs; made in house; host or cells: CHO-K1; conditions: for Selectivity (Ki cACE/Ki nACE or mutant): Ki cACE / Ki S2_S′-nACE; for decrease in binding affinity compared with nACE: S2_S′-nACE relative to nACE; for Ki: S2_S′-nACE, Morrison plot, 50 mM HEPES pH 6.8, 200 mM NaCl, 10 μM ZnCl2, mean ± SD; for binding affinity lower than that of cACE: S2_S′-nACE relative to cACE
Chain of S2_S′-nACE (S260T, E262S, D354E, S357V, T358V, Y369F, R381E and E431D) (P12821 40-624 S289T/E291S/D383E/S386V/T387V/Y398F/R410E/E460D): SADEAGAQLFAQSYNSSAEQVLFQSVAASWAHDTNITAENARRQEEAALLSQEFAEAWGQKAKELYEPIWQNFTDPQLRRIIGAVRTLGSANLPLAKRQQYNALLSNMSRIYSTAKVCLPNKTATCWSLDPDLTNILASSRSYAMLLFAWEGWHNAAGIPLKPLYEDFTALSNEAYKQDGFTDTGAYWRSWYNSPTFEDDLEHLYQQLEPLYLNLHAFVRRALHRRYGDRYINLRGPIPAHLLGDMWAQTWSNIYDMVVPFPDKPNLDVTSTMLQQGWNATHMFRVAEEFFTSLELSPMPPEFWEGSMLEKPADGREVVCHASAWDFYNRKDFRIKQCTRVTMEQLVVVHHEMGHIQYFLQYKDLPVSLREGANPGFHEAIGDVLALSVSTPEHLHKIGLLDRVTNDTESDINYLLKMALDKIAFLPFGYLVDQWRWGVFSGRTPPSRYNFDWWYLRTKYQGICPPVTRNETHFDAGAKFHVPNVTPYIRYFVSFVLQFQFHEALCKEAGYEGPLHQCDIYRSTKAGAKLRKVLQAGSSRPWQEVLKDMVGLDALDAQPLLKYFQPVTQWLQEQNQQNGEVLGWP
Experimental: (§1) Serial dilutions of an appropriate range were prepared for each inhibitor in the aforementioned assay buffer. An appropriate concentration of enzyme was similarly prepared and incubated with an equal volume of inhibitor for 15 min at 22°C after which 20 μl volumes of the reactions were aliquoted to a 96-well plate. […] Control (zero inhibitor) reactions containing the appropriate concentration of methanol or DMSO (in the case of ketoACE-13 or omapatrilat, respectively) were included to correct for any possible vehicle-induced effects on the reaction rate.

nACE [2] = test: Inhibitor binding kinetics, modified Abz-FRK(Dnp)P-OH assay, wild-type N-domain; type: biochemical; conditions: Ki cACE / Ki nACE (N-selectivity)
Experimental: as §1

cACE = cACE (Homo sapiens, UniProt P12821); test: Inhibitor binding kinetics, modified Abz-FRK(Dnp)P-OH assay, wild-type C-domain; type: biochemical; conditions: for Ki: cACE, Morrison plot, 50 mM HEPES pH 6.8, 200 mM NaCl, 10 μM ZnCl2, mean ± SD
Chain of cACE (P12821 643-1222 limits assumed): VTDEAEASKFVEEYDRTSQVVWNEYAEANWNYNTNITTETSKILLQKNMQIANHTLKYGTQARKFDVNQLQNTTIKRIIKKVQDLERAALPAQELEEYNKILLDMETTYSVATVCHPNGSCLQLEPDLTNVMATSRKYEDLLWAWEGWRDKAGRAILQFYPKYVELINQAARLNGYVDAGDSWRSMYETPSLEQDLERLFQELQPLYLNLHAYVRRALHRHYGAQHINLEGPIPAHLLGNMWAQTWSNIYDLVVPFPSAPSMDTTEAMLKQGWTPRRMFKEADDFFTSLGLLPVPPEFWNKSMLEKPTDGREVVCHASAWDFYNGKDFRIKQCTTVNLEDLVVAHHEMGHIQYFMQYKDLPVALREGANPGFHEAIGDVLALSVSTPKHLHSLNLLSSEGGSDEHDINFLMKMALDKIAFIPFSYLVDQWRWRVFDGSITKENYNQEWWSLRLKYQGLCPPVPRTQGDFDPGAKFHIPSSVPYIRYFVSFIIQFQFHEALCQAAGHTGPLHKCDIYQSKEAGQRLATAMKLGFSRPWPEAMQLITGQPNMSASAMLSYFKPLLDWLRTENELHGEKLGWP
Experimental: as §1

[3] = biological target: S2-nACE (Y369F and R381E) (Homo sapiens, UniProt P12821, R410E/Y398F); test: Inhibitor binding kinetics, modified Abz-FRK(Dnp)P-OH assay, S2 mutant; type: biochemical; set-up: The truncated (single domain) wild-type N-domain (nACE), N-domain mutant constructs; made in house; host or cells: CHO-K1; conditions: for Selectivity (Ki cACE/Ki nACE or mutant): Ki cACE / Ki S2-nACE; for decrease in binding affinity compared with nACE: S2-nACE relative to nACE; for Ki: S2-nACE, Morrison plot, 50 mM HEPES pH 6.8, 200 mM NaCl, 10 μM ZnCl2, mean ± SD
Chain of S2-nACE (Y369F and R381E) (P12821 40-624 Y398F/R410E): as the sequence (P12821 40-624 S289T/E291S/D383E/S386V/T387V/Y398F/R410E/E460D) above, with T250S, S252E, E344D, V347S, V348T, D421E counted along it
Experimental: as §1

nACE [4] = biological target: nACE (Homo sapiens, UniProt P12821); test: Inhibitor binding kinetics, modified Abz-FRK(Dnp)P-OH assay, wild-type N-domain; type: biochemical; set-up: The truncated (single domain) wild-type N-domain (nACE); made in house; host or cells: CHO-K1; conditions: nACE; Morrison plot; 50 mM HEPES pH 6.8, 200 mM NaCl, 10 μM ZnCl2; mean ± SD
Chain of nACE (Homo sapiens, UniProt P12821) (P12821 40-624 limits assumed): as the sequence (P12821 40-624 S289T/E291S/D383E/S386V/T387V/Y398F/R410E/E460D) above, with T250S, S252E, E344D, V347S, V348T, F359Y, E371R, D421E counted along it
Experimental: as §1

[5] = biological target: S′-nACE (S260T, E262S, D354E, S357V, T358V and E431D) (Homo sapiens, UniProt P12821, D383E/E291S/E460D/S289T/S386V/T387V); test: Inhibitor binding kinetics, modified Abz-FRK(Dnp)P-OH assay, S′ mutant; type: biochemical; conditions: for Selectivity (Ki cACE/Ki nACE or mutant): Ki cACE / Ki S′-nACE; for decrease in binding affinity compared with nACE: S′-nACE relative to nACE; for Ki: S′-nACE, Morrison plot, 50 mM HEPES pH 6.8, 200 mM NaCl, 10 μM ZnCl2, mean ± SD
Chain of S′-nACE (S260T, E262S, D354E, S357V, T358V and E431D) (P12821 40-624 S289T/E291S/D383E/S386V/T387V/E460D): as the sequence (P12821 40-624 S289T/E291S/D383E/S386V/T387V/Y398F/R410E/E460D) above, with F359Y, E371R counted along it
Experimental: as §1

[6] = Integrity of omapatrilat at ambient temperature monitored by HPLC (dimer formation); type: physicochemical
Experimental: The fluorogenic substrate Abz-FRK(Dnp)P-OH was a kind gift from Prof A.K. Carmona, Universidade Federal de São Paulo. The peptide was dissolved in 100% DMSO and the concentration determined by measuring the absorbance at 365 nm and extinction coefficient of 17 300 M^−1 cm^−1. Subsequent dilutions from the 1 mM stock of were made in assay buffer (50 mM HEPES, pH 6.8, 10 μM ZnCl2, 200 mM NaCl). […] KetoACE-13 was dissolved in 100% methanol to a stock concentration of 50 mM, followed by dilution in deionized distilled water to 10 mM. Since the dimerization of omapatrilat has been previously described, fresh 10 mM stocks of inhibitor were prepared in DMSO directly prior to kinetic analysis. The integrity of omapatrilat at ambient temperature was monitored at 50 µM by HPLC (Agilent 1260 Infinity HPLC System with a Poroshell 120 EC-C 18 column) over the timeframe of each assay, as previously described. A 20 µl injection volume was used with a 0.5 ml/min flow rate with A: 1% ACN, 0.1% TFA; B: 95% ACN, 0.1% TFA; and 0–100% B over 10 min; 214 nm.
Figure 2 . Effect of mutation on N-selective inhibition, integrity of omapatrilat at ambient temperature as monitored by HPLC and SDS–PAGE gel illustrating the decreased molecular mass of the active site mutant N389-S2_S′-nACE. (A) Inhibitor binding affinities (Ki values) for wild-type cACE or nACE mutants are shown on a log scale relative to nACE with error bars representing mean ± SD of at least two independent experiments. (B) Omapatrilat (50 μM in assay buffer) was analyzed using a Poroshell 120 EC-C 18 column on the Agilent 1260 infinity HPLC system. Twenty microliters of the sample was injected onto the column immediately after preparation or following incubation at ambient temperature for 1, 2 or 3 h. Conditions: A: 1% ACN, 0.1% TFA; B: 95% ACN, 0.1% TFA; 0–100% B over 10 min; 0.5 ml/min, 214 nm. […] (C) SDS–PAGE of purified nACE proteins (1) fully glycosylated S2_S′-nACE, (2) minimally glycosylated N389-nACE and (3) minimally glycosylated N389-S2_S′-nACE.

[7] = biological target: Wild-type N-domain of angiotensin-converting enzyme (nACE)
[8] = biological target: Wild-type C-domain of angiotensin-converting enzyme (cACE)
[9] = biological target: S′-nACE (N-domain mutant S260T, E262S, D354E, S357V, T358V and E431D)
[10] = biological target: S2_S′-nACE (N-domain mutant S260T, E262S, D354E, S357V, T358V, Y369F, R381E and E431D)
[11] = biological target: S2-nACE (N-domain mutant Y369F and R381E)

Row | Molecule | Selectivity (Ki cACE/Ki nACE or mutant) [1] | decrease in binding affinity compared with nACE [1] | Ki [1] | Selectivity (Ki cACE/Ki nACE or mutant) (nACE [2]) | Selectivity (Ki cACE/Ki nACE or mutant) (cACE) | Ki (cACE) | Selectivity (Ki cACE/Ki nACE or mutant) [3] | decrease in binding affinity compared with nACE [3] | Ki [3] | Ki (nACE [4]) | Selectivity (Ki cACE/Ki nACE or mutant) [5] | decrease in binding affinity compared with nACE [5] | Ki [5] | binding affinity lower than that of cACE [1] | other results
1 | CC(NC(C(=O)O)C1CCCN1C(=O)C(N)CC(=O)O)C(=O)N1CCCC1C(=O)O (stereo not drawn) [SG6] | 1.1 | 784 fold | 72.9 ± 7.5 nM | 825 | 1 | 76.8 ± 4.3 nM | 1.7 | 474 fold | 44 ± 2.8 nM | 0.093 ± 0.02 nM | 70 | 11 fold | 1.09 ± 0.1 nM | – | –
2 | CC(C)(C)OC(=O)NC(CC(=O)O)C(=O)NC(Cc1ccccc1)C(=O)CCC(=O)N1CCCC1C(=O)O (stereo not drawn) [KetoACE13] | 0.2 | – | 47800 nM | 8 | 1 | 8250 ± 430 nM | 0.5 | – | 17800 nM | 1000 ± 270 nM | 3 | 3 fold | 2990 ± 1000 nM | 6 fold | –
3 | O=C(N[C@H]1CCS[C@H]2CCC[C@@H](C(=O)O)N2C1=O)[C@@H](S)Cc1ccccc1 [Omapatrilat, omapatrilat, reference compound] | 2 | – | 0.29 ± 0.01 nM | 2 | 1 | 0.7 ± 0.09 nM | 2 | – | 0.43 ± 0.13 nM | 0.37 ± 0.05 nM | 1 | – | 0.49 ± 0.04 nM | – | fraction of dimer detected ([6]; 50 μM in assay buffer (50 mM HEPES pH 6.8), immediately after solubilization): 2.56%; increase in fraction of dimer ([6]; 50 μM in assay buffer, after 1 h at ambient temperature): 0.86%; fraction of dimer detected ([6]; 50 μM in assay buffer, after 3 h of incubation at ambient temperature): 11%
4 | C[C@H](N[C@@H](CCc1ccccc1)C(=O)O)C(=O)N1CCC[C@H]1C(=O)O [Enalaprilat, enalaprilat, reference compound] | – | 4 fold | – | – | – | – | – | 2 fold | – | – | – | 2.5 fold | – | 19 fold | greater affinity to cACE than nACE (cACE; cACE relative to nACE): 5 fold
5 | [2Abz]FRK(Dnp)P-OH (N-terminus assumed; SMILES N=C(N)NCCC[C@H](NC(=O)[C@H](Cc1ccccc1)NC(=O)c1ccccc1N)C(=O)N[C@@H](CCCCNc1ccc([N+](=O)[O-])cc1[N+](=O)[O-])C(=O)N1CCC[C@H]1C(=O)O) [Abz-FRK(Dnp)P-OH] | – | – | – | – | – | – | – | – | – | – | – | – | – | – | Km of Abz-FRK(Dnp)P-OH hydrolysis (Michaelis-Menten model, initial velocities; 50 mM HEPES pH 6.8, 200 mM NaCl, 10 µM ZnCl2, ambient temperature) [7]: 7.54 μM; Km of Abz-FRK(Dnp)P-OH hydrolysis (Michaelis-Menten model, initial velocities; 50 mM HEPES pH 6.8, 200 mM NaCl, 10 µM ZnCl2, ambient temperature) [8]: 6.3 μM; Km of Abz-FRK(Dnp)P-OH hydrolysis (Michaelis-Menten model, initial velocities; 50 mM HEPES pH 6.8, 200 mM NaCl, 10 µM ZnCl2, ambient temperature) [9]: 4.51 μM; Km of Abz-FRK(Dnp)P-OH hydrolysis (Michaelis-Menten model, initial velocities; 50 mM HEPES pH 6.8, 200 mM NaCl, 10 µM ZnCl2, ambient temperature) [10]: 12.4 μM; Km of Abz-FRK(Dnp)P-OH hydrolysis (Michaelis-Menten model, initial velocities; 50 mM HEPES pH 6.8, 200 mM NaCl, 10 µM ZnCl2, ambient temperature) [11]: 11.9 μM
